Measured values: US10925967B2, “Degradation of Bruton's tyrosine kinase (BTK) by conjugation of BTK inhibitors with E3 ligase ligand and methods of use” (Dana-Farber Cancer Institute, Inc., priority 2016, dated 2021)

How the values were obtained:
[1] = target: T1, BTK (Homo sapiens, UniProt Q06187); test: MOLM14 cell assay and Western blotting of BTK, Aurora A and tubulin levels; format: cell-based; parameters: endogenous in cells; settings: MOLM14 cells, 40 nM, 200 nM, 1 μM, 4 hours
Description: MOLM14 cells were treated with DMSO or with 40 nM, 200 nM, 1 μM of a BTK bifunctional inhibitor compound of the disclosure for 4 hours, followed by protein lysate harvest and Western blotting analysis of BTK, Aurora A, and ca-tubulin levels. […] (FIG. 2)
(§1) Cells are lysed using RIPA buffer supplemented with protease inhibitor cocktail (Roche) and phosSTOP phosphatase inhibitor cocktail (Roche) on ice for 15 minutes. The lysates are spun at 20,000×g for 15 minutes on 4° C. and protein concentration is determined using BCA assay (Pierce). The following primary antibodies are used in this study: BTK, GADPH, tubulin and Aurora A kinase (all from Cell Signaling Technology). Blots are imaged using fluorescence-labeled secondary antibodies (LI-COR) on the OdysseyCLxImager (LI-COR). Quantification of band intensities is performed using OdysseyCLx software (LI-COR).

[2] = target: T1, BTK; test: K562 cell assay and Western blotting of BTK levels; format: cell-based; parameters: endogenous in cells; host or cells: K562 cells; settings: K562 cells, 200 nM, 1 μM, or 5 μM, 12 hours
Description: K562 cells were treated with DMSO or with 200 nM, 1 μM, or 5 μM of a BTK bifunctional inhibitor compound of the disclosure for 12 hours, followed by protein lysate harvest and Western blotting analysis.
as §1

T1 sequence (Q06187 whole entry): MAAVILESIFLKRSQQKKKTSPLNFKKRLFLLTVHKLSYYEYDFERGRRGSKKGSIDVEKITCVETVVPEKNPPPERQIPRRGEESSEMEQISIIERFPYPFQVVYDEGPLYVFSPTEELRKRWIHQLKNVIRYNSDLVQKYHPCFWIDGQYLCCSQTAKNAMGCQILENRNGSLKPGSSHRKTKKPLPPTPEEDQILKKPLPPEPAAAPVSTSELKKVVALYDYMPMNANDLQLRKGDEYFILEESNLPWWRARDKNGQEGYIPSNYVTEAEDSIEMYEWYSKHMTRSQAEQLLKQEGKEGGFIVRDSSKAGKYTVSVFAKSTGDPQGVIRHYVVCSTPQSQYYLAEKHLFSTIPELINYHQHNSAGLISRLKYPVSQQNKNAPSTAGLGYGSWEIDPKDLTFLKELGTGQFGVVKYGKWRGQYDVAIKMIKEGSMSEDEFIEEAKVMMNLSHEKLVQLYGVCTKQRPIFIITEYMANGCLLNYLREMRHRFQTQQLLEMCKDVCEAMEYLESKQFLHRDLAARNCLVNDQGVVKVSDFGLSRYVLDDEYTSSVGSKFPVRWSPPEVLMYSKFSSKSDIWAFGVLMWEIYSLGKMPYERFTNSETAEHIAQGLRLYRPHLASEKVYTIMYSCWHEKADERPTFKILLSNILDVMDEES

BTK degradation (Western blot) [1]	BTK degradation (Western blot) [2]	Compound
showed BTK degradation		COc1cc(Nc2c(C#N)cnc3cc(OCCCN4CCN(CCOCCOCCNc5cccc6c5C(=O)N(C5CCC(=O)NC5=O)C6=O)CC4)c(OC)cc23)c(Cl)cc1Cl (stereo not drawn) [Compound I-3]
	showed BTK degradation	COc1cc(Nc2c(C#N)cnc3cc(OCCCN4CCN(CCOCCOCCOCCNc5cccc6c5C(=O)N(C5CCC(=O)NC5=O)C6=O)CC4)c(OC)cc23)c(Cl)cc1Cl (stereo not drawn) [Compound I-2]
	showed BTK degradation	COc1cc(Nc2c(C#N)cnc3cc(OCCCN4CCN(C(=O)CCCNC(=O)COc5cccc6c5C(=O)N(C5CCC(=O)NC5=O)C6=O)CC4)c(OC)cc23)c(Cl)cc1Cl (stereo not drawn) [Compound I-5]
